Data: patent EP0428486B1, “Polymyxin conjugates” (SANDOZ LTD., priority 1989, dated 1991)

What was measured:
[1] = Toxicity (lethality) after i.v. injection, Example 4; assay type: in vivo
Protocol: The ultra-pure PMB-conjugate has an LD₀ of > 100 mg/kg and it has not been possible to establish an LD₁₀₀ due to its inherent non-toxicity. Comparisons in the table below are made between the highest non-toxic dose of PMB (native or conjugated): […]

E.coli 0111B4 endotoxin = assay: Endotoxin-induced lethality test, i.v. treatment, Example 4; assay type: in vivo; conditions: i.v. injection 1-3 minutes before an LD90 i.p. injection of E.coli 0111B4 endotoxin (0.5 µg/kg)
endotoxin (0111B₄) = assay: PMB anti-endotoxin evaluation (endotoxin-induced lethality in galactosamine-hypersensitized mice), i.p.; assay type: in vivo, Male CB57BL/c mice
Protocol: (§1) As used herein the following definitions apply: • LD₀ is the highest non-toxic dose of PMB or its conjugate; • LD₁₀₀ is the dose of PMB or its conjugated form which results in 90-100% lethality when injected into a normal test animal; • PD₁₀₀ is the dose of polymyxin B or its conjugated form which, when injected into a hypersensitized test animal, results in at least 95 % survival; • Therapeutic Index (TI) is calculated by dividing LD₁₀₀ by PD₁₀₀.
Male CB57BL/c mice (18-22 g, Jackson Labs) are used throughout this study. Animals are given endotoxin (0111B₄ from List Biologicals, Palo Alto, CA, USA) and galactosamine to hypersensitize, as described in Galanos et al., Proc. Natl. Acad. Sci. USA 76 (1979) 5939. The endotoxin and galactosamine (320 mg/kg) are injected intraperitoneally in 0.5 ml pyrogen-free isotonic saline per animal between 13:00 and 15:00 to avoid diurnal variation. From a dose-response study, it is determined that 0.01 mg/kg endotoxin produces 85-95 % lethality. Animals are observed each day for 6 days after injection.
PMB (native and conjugated forms) are evaluated for their ability to neutralize endotoxin by either pre-mixing with endotoxin for 60 minutes before i.p. injection or by coadministration of the substances as a single i.p. injection. […]

non-sensitized mice = assay: PMB (native and conjugated forms) induced lethality, i.p.; assay type: in vivo, Male CB57BL/c mice; conditions: intraperitoneal injection, lethality monitored for 7 days
Protocol: as §1
PMB (native and conjugated forms) are evaluated for their inherent toxicity in non-sensitized mice. Male CB57BL/c mice (18-22 g, Jackson Labs) are used throughout this study. Animals are given either native PMB or conjugated PMB by intraperitoneal injection (0.5 ml/animal) and lethality is monitored for 7 days. The LD₁₀₀ is determined by varying the dose of PMB (native and conjugated forms) that result in 100 % lethality. From 10 to 20 animals are used for each dose.

In the case of polymyxin B [Native PMB], the LD₁₀₀ i.v. ([1]; i.v.) is reported as 9.5 mg/kg, the LD₀ ([1]; i.v. injection, lethality monitored over 7 days, highest non-toxic dose) is reported as 5 mg/kg and the PD₁₀₀ (E.coli 0111B4 endotoxin) is reported as 0.1 mg/kg. The PD₁₀₀ (endotoxin (0111B₄); PMB or conjugate allowed to react with the endotoxin for 60 min before i.p. injection) was 2 mg/kg, the PD₁₀₀ (endotoxin (0111B₄); i.p., hypersensitized mice (galactosamine 320 mg/kg, endotoxin 0.01 mg/kg), pre-mixing or coadministration not stated for these rows) was 2 mg/kg and the LD₁₀₀ (non-sensitized mice) was 25 mg/kg.
